Converted amounts (≈) assume the structure as drawn.
Tests used:
[1] = cited from earlier work; for Sol (Exp): experimental water solubility; for solubility: aqueous, at 25° C.
[2] = cited from earlier work; for log P Exp.: experimentally determined, database entry; for Log P: known values used for standard curve
[3] = Experimental water solubility of alcohol compounds at 25° C.

CCC(C)(C)CO [2,2-Dimethyl-1-butanol]
Sol (Exp) ([1]; 25° C.): 7.6 g/L

CC(C)C(C)(C)O [2,3-Dimethyl-2-butanol]
Sol (Exp) ([1]; 25° C.): 43.5 g/L

CCC(C)C(C)(C)O (centres unmarked) [2,3-Dimethyl-2-pentanol]
Sol (Exp) ([1]; 25° C.): 15.7 g/L

CC(C)CC(C)(C)O [2,4-Dimethyl-2-pentanol]
Sol (Exp) ([1]; 25° C.): 13.6 g/L

CC(C)C(O)C(C)C [2,4-Dimethyl-3-pentanol]
Sol (Exp) ([1]; 25° C.): 7 g/L

CC=CC=CCO [2,4-Hexadien-1-ol]
log P Exp. [2]: 1.334

CCC(CC)CO [2-Ethyl-1-butanol]
Sol (Exp) ([1]; 25° C.): 4 g/L

CCCCC(C)O (centres unmarked) [2-hexanol]
log P Exp. [2]: 1.76
Log P [2]: 1.76
Sol (Exp) ([1]; 25° C.): 13.7 g/L

Cc1ccccc1O [2-methyl phenol]
Sol (Exp) ([1]; 25° C.): 25.9 g/L

CCCC(C)O (centres unmarked) [2-pentanol]
Log P [2]: 1.19
Sol (Exp) ([1]; 25° C.): 44.6 g/L

CC(C)=CCO [3-Methyl-2-buten-1-ol]
log P Exp. [2]: 1.244

CCCC(O)CC (centres unmarked) [3-hexanol]
log P Exp. [2]: 1.65
Log P [2]: 1.65
Sol (Exp) ([1]; 25° C.): 16.1 g/L
Solubility (at 25° C.) ([1]; water, 25° C., known values used for standard curve): 16.1 mg/mL (≈ 158 mM)

CC(C)CCO [3-methyl-1-butanol]
Sol (Exp) ([1]; 25° C.): 26.7 g/L

CCC(O)CC [3-pentanol]
log P Exp. [2]: 1.21
Log P [2]: 1.21
Sol (Exp) ([1]; 25° C.): 51.5 g/L

CC(C)CCCO [4-Methyl-1-pentanol]
Sol (Exp) ([1]; 25° C.): 7.6 g/L

CCCCCCCCO [n-octanol]
solubility [1]: 0.5 grams per liter

CCCCCO [n-pentanol]
log P Exp. [2]: 1.51
Log P [2]: 1.51
solubility [1]: 22 grams per liter
Sol (Exp) ([1]; 25° C.): 22 g/L
solubility converted to percent by weight of an aqueous composition [3]: 2.2 % by weight
